Results reported in patent US4788197A, “Pyrazine derivatives useful as platelet aggregation inhibitors” (Terumo Kabushiki Kaisha, priority 1985, dated 1988).
Read-outs that look alike come from different tables or passages of the source.

Experiments:
platelet aggregation = experiment: Platelet aggregation-inhibiting action (Born's turbidimetric method, platelet-rich plasma); format: cell-based, rabbit; conditions: Oryctolagus cuniculus, 0.05 h
Experimental: Nine volumes of blood was drawn from the carotid artery of a rabbit using a syringe containing one volume of 3.8% solution of sodium citrate. The blood was centrifuged to obtain platelet-rich plasma (PRP: 7×10^5 platelets/μl).
In a cuvette was placed 268 μl of the PRP, which was warmed in an isothermic bath at 37° C. for 2 minutes. To the cuvette was added 2 μl of an ethanol solution of a pyrazine derivative to be tested, followed by an incubation for 3 minutes. To the incubate was added a solution of a platelet-aggregation inducer, arachidonic acid or collagen. Measurement was made by Born's turbidimetric method (for example, see J. Physiol., vol. 168, p. 178, 1968). 50% inhibitory concentration for the platelet aggregation caused by arachidonic acid (50 μmol.) or collagen (10 μg/ml) was given in Table 1 using acetylsalicylic acid as the reference.
The 50% inhibitory concentration as shown in table means the concentration of a solution of the pyrazine derivative required for inhibiting the platelet aggregation to 50% when the platelet aggregation in the absence of a pyrazine derivative is taken as 100%.

cycloxygenase = target: T1, cycloxygenase (Oryctolagus cuniculus, UniProt O97554); experiment: Cycloxygenase inhibiting activity (washed platelets as cycloxygenase source); format: biochemical; conditions: washed rabbit platelets, 14C-labelled arachidonic acid, 37° C., 3 minutes; read-out: 50% Inhibitory concentration (cycloxygenase)
T1 construct: The washed platelets thus obtained were employed as a cycloxygenase source; from tissue; host or cells: washed rabbit blood platelets
T1 sequence (O97554 31-606): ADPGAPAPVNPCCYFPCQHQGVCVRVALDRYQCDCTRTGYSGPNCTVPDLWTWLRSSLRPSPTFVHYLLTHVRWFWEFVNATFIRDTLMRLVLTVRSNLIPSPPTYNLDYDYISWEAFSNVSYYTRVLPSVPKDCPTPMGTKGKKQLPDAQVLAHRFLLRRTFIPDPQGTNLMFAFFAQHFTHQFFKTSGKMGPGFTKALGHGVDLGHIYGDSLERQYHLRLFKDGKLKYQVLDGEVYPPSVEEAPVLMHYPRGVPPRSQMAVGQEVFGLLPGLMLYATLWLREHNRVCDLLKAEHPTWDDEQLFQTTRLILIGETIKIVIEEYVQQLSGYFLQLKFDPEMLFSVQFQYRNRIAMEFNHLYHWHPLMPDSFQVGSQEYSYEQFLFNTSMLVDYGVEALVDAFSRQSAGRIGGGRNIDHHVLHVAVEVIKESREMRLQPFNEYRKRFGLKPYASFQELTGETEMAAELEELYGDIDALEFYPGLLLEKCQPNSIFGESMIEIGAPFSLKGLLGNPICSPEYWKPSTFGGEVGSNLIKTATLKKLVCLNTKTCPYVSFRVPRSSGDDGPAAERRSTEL
Experimental: Nine volumes of blood was drawn from the abdominal artery of a rabbit using a syringe containing one volume of 3.8% solution of sodium citrate. Centrifugation of the blood afforded platelet-rich plasma. To the platelet-rich plasma was added 77 mM EDTA solution in a volume of 1/10 per volume of the plasma. The mixture was thoroughly mixed and centrifuged at 2500 rpm for 10 minutes. The supernatant was discarded, and the platelets were suspended in approximately 3 ml of a washing solution which was prepared by dissolving 134 mM of sodium chloride, 15 mM of trisaminomethane, 1 mM of EDTA and 5 mM of D-glucose in twice-distilled water with a pH adjusted with 1N hydrogen chloride to 7.4. The suspension was centrifuged at room temperature at 2000 rpm for 10 minutes. The supernatant was discarded, and the precipitated platelets were re-suspended in a phosphate buffer at pH 8.0 to adjust number of the platelets to 1×10^6 per μl.
The washed platelets thus obtained were employed as a cycloxygenase source.
To 3 μg of arachidonic acid and 0.2 μCi (1 μg) of ^14 C-labelled arachidonic acid placed in a glass-stoppered test tube was added one drop of a propylene glycol/ethanol solution (1:3 by volume). The ethanol was evaporated under nitrogen. To the residue were added 50 μl of a solution to be tested and then 450 μl of the washed platelets. The mixture was reacted at 37° C. for 3 minutes.
To the reaction mixture was added with ice cooling one drop of 1N hydrogen chloride to adjust the pH to 2-3. To the resulting mixture was added 2 ml of ethyl acetate, followed by extraction by shaking for 10 minutes and centrifugal separation at 4° C. at 2500 rpm for 10 minutes.
The supernatant was transferred to a flask and concentrated. The residue was dissolved in 100 μl of ethanol, and the entire solution was spotted on a silica gel thin plate (Merck, 60 F254).
The plate was developed by approximately 18 cm with a developer solution (chloroform/methanol/acetic acid/waters=70:8:1:0.8), followed by measurement by a radiochromatoscanner of the sum of radioactivities of prostaglandin F2α, thromboxan B2, […], prostaglandin D2 and HHT to determine the inhibiting activity.

[1] = aggregation induced by arachidonic acid (50 μmol.), rabbit PRP, 37° C., 3 min incubation, read-out: 50% aggregation inhibitory concentration, Arachidonic acid
[2] = aggregation induced by collagen (10 μg/ml), rabbit PRP, 37° C., 3 min incubation, read-out: 50% aggregation inhibitory concentration, Collagen

Row | IC50 (platelet aggregation; [1]) [µM] | IC50 (platelet aggregation; [2]) [µM] | IC50 (cycloxygenase) [µM] | SMILES | IC50 (platelet aggregation; read-out: 50% aggregation inhibitory concentration, Arachidonic acid) [µM] | IC50 (platelet aggregation; read-out: 50% aggregation inhibitory concentration, Collagen) [µM]
1 | – | – | – | CC(=O)Oc1ccccc1C(=O)O [Aspirin, acetylsalicylic acid, reference compound] | 14 | 560
2 | 8.5 | 20 | – | Cc1cnc(-c2ccc(Cl)cc2)c(-c2ccc(Cl)cc2)n1 [Example 1, 2,3-bis(p-chlorophenyl)-5-methylpyrazine] | – | –
3 | 0.03 | 0.042 | 30 | COc1ccc(-c2ncc(C)nc2-c2ccc(OC)cc2)cc1 [Example 2, 2,3-bis(p-methoxyphenyl)-5-methylpyrazine] | – | –
4 | 8 | 46 | – | c1ccc(Cc2cnc(-c3ccccc3)c(-c3ccccc3)n2)cc1 [Example 3, 2,3-diphenyl-5-benzylpyrazine] | – | –
5 | 1.7 | 35 | 220 | COc1ccc(Cc2cnc(-c3ccccc3)c(-c3ccccc3)n2)cc1 [Example 4, 2,3-Diphenyl-5-(p-methoxybenzyl)pyrazine] | – | –
6 | 4.5 | 14 | – | COc1cccc(Cc2cnc(-c3ccccc3)c(-c3ccccc3)n2)c1 [Example 5, 2,3-Diphenyl-5-(m-methoxybenzyl)pyrazine] | – | –
7 | 0.2 | 5 | – | COc1ccc(-c2ncc(Cc3ccccc3)nc2-c2ccc(OC)cc2)cc1 [Example 6, 2,3-Bis(p-methoxyphenyl)-5-benzylpyrazine] | – | –
8 | 0.025 | 0.79 | – | COc1ccc(-c2ncc(C(C)C)nc2-c2ccc(OC)cc2)cc1 [Example 7, 2,3-Bis(p-methoxyphenyl)-5-isopropylpyrazine] | – | –
9 | 0.046 | 0.64 | – | CCc1cnc(-c2ccc(OC)cc2)c(-c2ccc(OC)cc2)n1 [Example 8, 2,3-bis(p-methoxyphenyl)-5-ethylpyrazine] | – | –
10 | 0.44 | 0.79 | 86 | COc1ccc(-c2ncc(Cc3cccs3)nc2-c2ccc(OC)cc2)cc1 [Example 9, 2,3-Bis(p-methoxyphenyl)-5-(2-thienylmethyl)pyrazine] | – | –
11 | 0.084 | 0.92 | 62 | COc1ccc(-c2nc(C)c(C)nc2-c2ccc(OC)cc2)cc1 [Example 10, 2,3-bis(p-methoxyphenyl)-5,6-dimethylpyrazine] | – | –
